Experimental data reported in US6833372B2, “Non-peptide GnRH agents, Pharmaceutical compositions, and methods for their use” (Pfizer, Inc., priority 2002, dated 2004).
Like-named read-outs stand apart in the source and are kept apart here.

What was measured:
human GnRH receptors = biological target: T1, human GnRH receptors (Homo sapiens, UniProt P30968); assay: Radioligand binding: inhibition of 125I-GnRH-A binding to human GnRH receptor membranes; details: HEK 293 cell membranes
T1 construct: expressed in transfected cells; host or cells: HEK 293 cells, stably transfected; membranes
T1 sequence (P30968 1-328): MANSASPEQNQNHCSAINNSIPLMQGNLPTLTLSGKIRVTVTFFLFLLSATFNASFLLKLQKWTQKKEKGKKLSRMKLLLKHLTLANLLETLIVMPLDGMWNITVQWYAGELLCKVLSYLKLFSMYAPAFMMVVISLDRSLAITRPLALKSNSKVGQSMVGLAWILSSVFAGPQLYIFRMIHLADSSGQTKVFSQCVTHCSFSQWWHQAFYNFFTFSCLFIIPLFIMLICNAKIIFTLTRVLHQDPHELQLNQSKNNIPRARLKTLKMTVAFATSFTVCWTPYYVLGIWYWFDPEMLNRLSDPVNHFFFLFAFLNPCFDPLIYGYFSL
Procedure, shortened: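 Membranes from rat pituitaries, or HEK 293 cells stably expressing mouse or human receptor, incubated 1 hour at room temperature with ~0.04-0.06 nM radioligand (HEPES pH 7.4, EDTA, MgCl2, BSA) and competitor at 0.1-10,000 nM. Bound ligand collected by GF/C filtration and counted; Ki derived from IC50 by Cheng-Prusoff.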

[1] = In vitro metabolism: disappearance of parent compound in human liver microsomes; format: in vitro ADME; details: 5 uM compound, 0.5 mg/ml protein, 2 mM NADPH, 30 minutes 37° C.
Procedure, shortened: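 Microsomes from human, rat (male, female), dog and monkey liver incubated with 5 uM compound, 0.5 mg/ml protein and 2 mM NADPH in 50 mM K phosphate, pH 7.4, for 30 min at 37° C. Reaction stopped with acetonitrile; parent compound remaining measured by LC-MS.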

[2] = Pharmacokinetics in rats (jugular vein cannula, plasma LC-MS); format: in vivo, Rat; details: for Cmax / half-life / Tmax: rat, plasma, po
Method: Rats (male or female, 200-225 g) were prepared with indwelling jugular vein cannula as described by Harms et al., Applied Physiol. 36:391-398 (1974), and allowed to recover overnight with free access to the standard vivarium chow and water. […] […] The blood samples were withdrawn at specific times, plasma was immediately separated and compound extracted with ethyl acetate. The samples were analyzed by LC-MS using 30-90% gradient of ACN in 50 mM ammonium acetate.
The pharmacokinetic parameters were calculated using WinNonlin software (Scientific Consulting Inc.). The bioavailability was calculated as AUCp.o./AUCi.v., where AUCp.o. and AUC i.v. are areas under the plasma concentration-time curve after oral and i.v. administration, respectively.

Rat plasma % remain = format: in vitro ADME
H S A = H S A (Homo sapiens, UniProt P02768); assay: H S A column α; format: in vitro ADME
H S A, sequence (P02768 25-609): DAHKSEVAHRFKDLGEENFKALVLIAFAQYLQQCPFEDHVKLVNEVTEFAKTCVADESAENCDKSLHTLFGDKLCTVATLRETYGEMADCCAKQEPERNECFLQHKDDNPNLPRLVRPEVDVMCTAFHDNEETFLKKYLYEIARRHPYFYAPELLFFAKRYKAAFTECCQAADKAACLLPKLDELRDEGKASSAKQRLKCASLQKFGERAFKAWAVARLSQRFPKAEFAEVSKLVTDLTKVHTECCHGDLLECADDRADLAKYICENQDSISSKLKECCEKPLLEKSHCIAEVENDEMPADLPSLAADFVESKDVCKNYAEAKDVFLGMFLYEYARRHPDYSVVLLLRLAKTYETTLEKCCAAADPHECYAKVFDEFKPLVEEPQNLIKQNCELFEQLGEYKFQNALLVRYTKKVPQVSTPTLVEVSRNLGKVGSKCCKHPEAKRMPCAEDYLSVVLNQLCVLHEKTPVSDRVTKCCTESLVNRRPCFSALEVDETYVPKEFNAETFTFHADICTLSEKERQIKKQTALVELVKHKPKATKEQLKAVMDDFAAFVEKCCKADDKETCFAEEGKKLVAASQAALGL

[3] = female rat, 10 mg/kg as 5 mg/ml solution in 10% DMSO, 10% cremophor, 80% saline (footnote 5)
[4] = female, 10 mg/kg, female rat, 10 mg/kg as 5 mg/ml solution in 10% DMSO, 10% cremophor, 80% saline (footnote 5), read-out: FR Cmax
[5] = female, 10 mg/kg, female rat, 10 mg/kg as 5 mg/ml solution in 10% DMSO, 10% cremophor, 80% saline (footnote 5), read-out: FR T1/2 hr (converted)
[6] = female, 10 mg/kg, female rat, 10 mg/kg as 5 mg/ml solution in 10% DMSO, 10% cremophor, 80% saline (footnote 5), read-out: FR Tmax hr

Ki (human GnRH receptors) [nM]	Human % rem. 30′ [1] [%]	FR Fp.o. [2, 3] [%^5]	Cmax [2, 4] [nM]	half-life [2, 5] [h]	Tmax [2, 6] [h]	Rat plasma % remain (Rat plasma % remain) [%]	H S A column α (H S A)	also measured	Compound
7.7	83	60	4000	2.2	1	100	0.4	Cmax ([2]; male, 20 mg/kg, male rat, 20 mg/kg as 10 mg/ml in Labrasol/H2O 1/1 (footnote 2), read-out: MR Cmax): 3200 nM; Tmax ([2]; male, 20 mg/kg, male rat, 20 mg/kg as 10 mg/ml in Labrasol/H2O 1/1 (footnote 2), read-out: MR Tmax hr): 1 h; Cmax ([2]; male, 50 mg/kg, male rat, 50 mg/kg in 50 mg/ml PG (footnote 2), read-out: Cmax): 3700 nM; Tmax ([2]; male, 50 mg/kg, male rat, 50 mg/kg in 50 mg/ml PG (footnote 2), read-out: Tmax): 0.5 h	COc1nc(OCCO)nc(OC)c1NC(=O)c1ccc(Cc2cc3c(cc2C)C(C)(C)OC3(C)C)o1 [Example A3, 5-(1,1,3,3,6-Pentamethyl-1,3-dihydro-isobenzofuran-5-ylmethyl)-furan-2-carboxylic acid [2-(2-hydroxy-ethoxy)-4,6-dimethoxy-pyrimidin-5-yl]-amide]
4.6	60					100	1	FR Fp.o. ([2]; female rat, 10 mg/kg as 5 mg/ml solution in 10% DMSO 20% Labrasol, 70% saline (footnote 4)): 37%^4; Cmax ([2]; female, 10 mg/kg, female rat, 10 mg/kg as 5 mg/ml solution in 10% DMSO 20% Labrasol, 70% saline (footnote 4), read-out: FR Cmax): 1400 nM; half-life ([2]; female, 10 mg/kg, female rat, 10 mg/kg as 5 mg/ml solution in 10% DMSO 20% Labrasol, 70% saline (footnote 4), read-out: FR T1/2 hr (converted)): 5.1 h; Tmax ([2]; female, 10 mg/kg, female rat, 10 mg/kg as 5 mg/ml solution in 10% DMSO 20% Labrasol, 70% saline (footnote 4), read-out: FR Tmax hr): 1 h; MR Fp.o. ([2]; male rat, 10 mg/kg as 5 mg/ml solution in 10% DMSO, 20% Labrasol, 70% saline (footnote 1)): 6%^1; Cmax ([2]; male, 10 mg/kg, male rat, 10 mg/kg as 5 mg/ml solution in 10% DMSO, 20% Labrasol, 70% saline (footnote 1), read-out: MR Cmax): 100 nM; half-life ([2]; male, 10 mg/kg, male rat, 10 mg/kg as 5 mg/ml solution in 10% DMSO, 20% Labrasol, 70% saline (footnote 1), read-out: MR T1/2 hr (converted)): 1.5 h; Tmax ([2]; male, 10 mg/kg, male rat, 10 mg/kg as 5 mg/ml solution in 10% DMSO, 20% Labrasol, 70% saline (footnote 1), read-out: MR Tmax hr): 1 h	COc1nc(OC)c(NC(=O)c2ccc(Cc3cc4c(cc3C)C(C)(C)OC4(C)C)o2)c(OC)n1 [Example A1, 5-(1,1,3,3,6-Pentamethyl-1,3-dihydro-isobenzofuran-5-ylmethyl)-furan-2-carboxylic Acid (2,4,6-trimethoxy-pyrimidin-5-yl)-amide]
1.8	40					83	>30	FR Fp.o. ([2]; female rat, 6 mg/kg as 3 mg/ml solution in 6% DMSO, 6% cremophor, 88% saline (footnote 6)): 10%^6; Cmax ([2]; female, 6 mg/kg, female rat, 6 mg/kg as 3 mg/ml solution in 6% DMSO, 6% cremophor, 88% saline (footnote 6), read-out: FR Cmax): 900 nM; half-life ([2]; female, 6 mg/kg, female rat, 6 mg/kg as 3 mg/ml solution in 6% DMSO, 6% cremophor, 88% saline (footnote 6), read-out: FR T1/2 hr (converted)): 5.7 h; Tmax ([2]; female, 6 mg/kg, female rat, 6 mg/kg as 3 mg/ml solution in 6% DMSO, 6% cremophor, 88% saline (footnote 6), read-out: FR Tmax hr): 1 h	COc1nc(N(C)C)nc(OC)c1NC(=O)c1ccc(Cc2cc3c(cc2C)C(C)(C)CCC3(C)C)o1 [Example B2, 5-(3,5,5,8,8-Pentamethyl-5,6,7,8-tetrahydro-naphthalen-2-ylmethyl)-furan-2-carboxylic Acid (dimethylamino-dimethoxy-pyrimidin-5-yl)-amide]
0.55	35	56	800	2	2	100	13		COc1nc(OC)c(NC(=O)c2ccc(Cc3cc4c(cc3C)C(C)(C)CCC4(C)C)o2)c(OC)n1 [Example C1, 5-(3,5,5,8,8-Pentamethyl-5,6,7,8-tetrahydro-naphthalen-2-ylmethyl)-furan-2-carboxylic Acid (2,4,6-trimethoxy-pyrimidin-5-yl)-amide]
